Test [1] deals with Diabrotica balteata. The experiment in a line: Diabrotica balteata spray test (germinated wheat grains). As to conditions: 168 h, application rate 100 g/ha (=32 μg/cavity), after 7 days, beetle larvae on wheat, 100% = all wheat plants grown as in untreated, uninfected control, read-out: efficacy in %. It is filed as in vivo. The text has this: Diabrotica Balteata—Spray Test Solvent: 78 parts by weight of acetone • • 1.5 parts by weight of dimethylformamide Emulsifier: alkylaryl polyglycol ether An appropriate active ingredient formulation is produced by dissolving 1 part by weight of active ingredient with the stated parts by weight of solvent and making the solution up to the desired concentration with water containing an emulsifier concentration of 1000 ppm. Further test concentrations are produced by diluting the formulation with emulsifier-containing water. Pre-swollen wheat grains (Triticum aestivum) are incubated in a multiwell plate filled with agar and a little water for one day (5 seed grains per cavity). The germinated wheat grains are sprayed with an active ingredient formulation of the desired concentration. Subsequently, each cavity is infected with 10-20 beetle larvae of Diabrotica balteata. After 7 days, efficacy in % is determined. 100% means that all wheat plants have grown as in the untreated, uninfected control; 0% means that no wheat plant has grown.

The subject of test [2] is Spodoptera frugiperda. Briefly: Spodoptera frugiperda spray test (maize leaf disks). The class given is in vivo. As to conditions: foliar, 168 h, application rate 100 g/ha, caterpillars, after 7 days, 100% = all caterpillars killed, read-out: efficacy in %. The source says: Spodoptera frugiuerda—Spray Test
Solvent: 78.0 parts by weight of acetone • • 1.5 parts by weight of dimethylformamide
Emulsifier: alkylaryl polyglycol ether
An appropriate active ingredient formulation is produced by dissolving 1 part by weight of active ingredient with the stated parts by weight of solvent and making the solution up to the desired concentration with water containing an emulsifier concentration of 1000 ppm. Further test concentrations are produced by diluting the formulation with emulsifier-containing water.
Leaf disks of maize (Zea mays) are sprayed with an active ingredient formulation of the desired concentration and, after drying, populated with caterpillars of the fall armyworm (Spodopterafrugiperda).
After 7 days, efficacy in % is determined. 100% means that all of the caterpillars have been killed; 0% means that none of the caterpillars have been killed.

`CCS(=O)(=O)c1c(-c2nc3cc4c(cc3[nH]2)OC(F)(F)C(F)(F)O4)nc(Br)n1C` [Example I-2, 2-[2-Bromo-5-(ethylsulfonyl)-1-methyl-1H-imidazol-4-yl]-6,6,7,7-tetrafluoro-6,7-dihydro-1H-[1,4]dioxino[2,3-f]benzimidazole]: the pest or weed control at 100 g/ha in test [1] and in test [2] was 100% in each case. `CCS(=O)(=O)c1c(-c2nc3cc4c(cc3n2C)OC(F)(F)C(F)(F)O4)nc(-c2ccc(F)cc2)n1C` [Example I-5, 2-[5-(Ethylsulfonyl)-2-(4-fluorophenyl)-1-methyl-1H-imidazol-4-yl]-6,6,7,7-tetrafluoro-1-methyl-6,7-dihydro-1H-[1,4]dioxino[2,3-f]benzimidazole]: the pest or weed control at 100 g/ha in test [1] and in test [2] was 100% in each case.

Take `CCS(=O)(=O)c1c(-c2nc3cc4c(cc3n2C)OC(F)(F)C(F)(F)O4)nc(-c2ccc(C3(C(F)(F)F)CC3)cc2)n1C` [Example I-7, 2-[5-(Ethylsulfonyl)-1-methyl-2-{4-[1-(trifluoromethyl)cyclopropyl]phenyl}-1H-imidazol-4-yl]-6,6,7,7-tetrafluoro-1-methyl-6,7-dihydro-1H-[1,4]dioxino[2,3-f]benzimidazole]: the pest or weed control at 100 g/ha in test [1] came out at 100%. With `CCS(=O)(=O)c1c(-c2nc3cc4c(cc3n2C)OC(F)(F)C(F)(F)O4)nc(-c2cccc(Br)c2)n1C` [Example I-12, 2-[2-(3-Bromophenyl)-5-(ethylsulfonyl)-1-methyl-1H-imidazol-4-yl]-6,6,7,7-tetrafluoro-1-methyl-6,7-dihydro-1H-[1,4]dioxino[2,3-f]benzimidazole], the pest or weed control at 100 g/ha in test [1] and in test [2] was 100% throughout. With `CCS(=O)(=O)c1c(-c2nc3cc4c(cc3n2C)OC(F)(F)C(F)(F)O4)nc(-c2cccc(Cl)c2)n1C` [Example I-13, 2-[2-(3-Chlorophenyl)-5-(ethylsulfonyl)-1-methyl-1H-imidazol-4-yl]-6,6,7,7-tetrafluoro-1-methyl-6,7-dihydro-1H-[1,4]dioxino[2,3-f]benzimidazole], the pest or weed control at 100 g/ha in test [1] and in test [2] was 100% throughout.

Regarding `CCS(=O)(=O)c1c(-c2nc3cc4c(cc3n2C)OC(F)(F)C(F)(F)O4)nc(-c2ccc(-c3ccc(Br)cn3)cn2)n1C` [Example I-25], in test [2], the pest or weed control at 100 g/ha was determined as 100%. For the molecule `CCS(=O)(=O)c1c(-c2nc3cc4c(cc3n2C)OC(F)(F)C(F)(F)O4)nc(-c2ccc(Cl)cn2)n1C` [Example I-31, 2-[2-(5-Chloropyridin-2-yl)-5-(ethylsulfonyl)-1-methyl-1H-imidazol-4-yl]-6,6,7,7-tetrafluoro-1-methyl-6,7-dihydro-1H-[1,4]dioxino[2,3-f]benzimidazole], in test [2], the pest or weed control at 100 g/ha was 100%.

For `CCS(=O)(=O)c1c(-c2nc3cc4c(cc3n2C)OC(F)(F)C(F)(F)O4)nc(-c2ccc(C#N)cn2)n1C` [Example I-32, 6-[5-(Ethylsulfonyl)-1-methyl-4-(6,6,7,7-tetrafluoro-1-methyl-6,7-dihydro-1H-[1,4]dioxino[2,3-f]benzimidazol-2-yl)-1H-imidazol-2-yl]nicotinonitrile], the pest or weed control at 100 g/ha in test [1] and in test [2] was 100% throughout.

As to `CCS(=N)(=O)c1c(-c2nc3cc4c(cc3n2C)OC(F)(F)C(F)(F)O4)nc(-c2ccc(C3(C#N)CC3)cc2)n1C` (centres unmarked) [Example I-39], the pest or weed control at 100 g/ha in test [2] worked out at 100%.

The values are drawn from patent US20230247994A1, “HETEROCYCLENE DERIVATIVES AS PEST CONTROL AGENTS” (Bayer Aktiengesellschaft, priority 2020, published 2023).
